The source of these data is patent publication US20240368135A1 (VERTEX PHARMACEUTICALS INCORPORATED, priority 2021, published 2024).

Where two headings read alike, the source gives them in different places.

A word on the IC50: it is the concentration that inhibits the measured activity by half.

The target in this assay is human NaV 1.8 (Homo sapiens, UniProt Q9Y5Y9). Kind of assay: E-VIPR assay detecting and measuring NaV inhibition properties. The following applies: HEK cells expressing truncated human NaV 1.8. The format is cell-based. Summed up:
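Membrane potential was followed by coumarin/oxonol FRET during electrical field stimulation of matrigel-seeded HEK cells carrying truncated human NaV1.8 plus KIR2.1. Dosing used 11 points, 3-fold steps, top 300 nM final, 0.625% DMSO, with or without 25% human serum.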

Where [1] appears, read: no human serum, read-out: IC50 in the E-VIPR Assay.
The mark [2] stands for this setting: in the presence of human serum (compound numbers followed by *), read-out: IC50 in the E-VIPR Assay, performed in the presence of human serum.

Chain of human NaV 1.8 (Q9Y5Y9 126-399 limits assumed): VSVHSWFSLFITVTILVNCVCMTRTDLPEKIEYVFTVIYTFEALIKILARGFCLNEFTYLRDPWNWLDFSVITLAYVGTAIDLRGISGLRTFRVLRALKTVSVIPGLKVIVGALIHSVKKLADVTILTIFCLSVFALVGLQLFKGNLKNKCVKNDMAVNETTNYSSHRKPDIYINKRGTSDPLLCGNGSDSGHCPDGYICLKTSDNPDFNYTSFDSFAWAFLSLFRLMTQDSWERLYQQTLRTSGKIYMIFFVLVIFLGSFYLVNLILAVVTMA
Chain of human NaV 1.8 (Q9Y5Y9 660-890 limits assumed): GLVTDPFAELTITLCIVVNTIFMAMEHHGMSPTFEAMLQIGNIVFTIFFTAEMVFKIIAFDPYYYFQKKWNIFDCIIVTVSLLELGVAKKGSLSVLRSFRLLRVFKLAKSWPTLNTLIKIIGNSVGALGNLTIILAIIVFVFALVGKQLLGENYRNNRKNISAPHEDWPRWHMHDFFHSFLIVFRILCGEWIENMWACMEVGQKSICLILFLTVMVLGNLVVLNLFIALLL
Chain of human NaV 1.8 (Q9Y5Y9 1148-1722 limits assumed): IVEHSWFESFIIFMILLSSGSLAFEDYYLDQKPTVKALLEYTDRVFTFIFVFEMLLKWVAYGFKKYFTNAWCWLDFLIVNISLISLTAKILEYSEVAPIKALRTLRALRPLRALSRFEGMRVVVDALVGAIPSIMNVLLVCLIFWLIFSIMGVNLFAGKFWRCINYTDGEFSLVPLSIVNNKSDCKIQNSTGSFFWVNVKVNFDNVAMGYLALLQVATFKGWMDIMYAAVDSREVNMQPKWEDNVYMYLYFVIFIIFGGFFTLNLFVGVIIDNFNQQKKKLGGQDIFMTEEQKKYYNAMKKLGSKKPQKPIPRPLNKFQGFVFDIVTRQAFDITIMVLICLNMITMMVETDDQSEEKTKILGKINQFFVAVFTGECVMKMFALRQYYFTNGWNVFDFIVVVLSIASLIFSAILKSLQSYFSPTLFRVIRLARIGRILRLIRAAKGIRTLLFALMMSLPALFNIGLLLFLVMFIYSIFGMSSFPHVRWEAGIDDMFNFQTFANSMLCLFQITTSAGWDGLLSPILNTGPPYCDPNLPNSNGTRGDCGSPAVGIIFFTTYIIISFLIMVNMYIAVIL

Regarding `COCCNC(COC)c1ccc(NC(=O)[C@@H]2O[C@@](C)(C(F)(F)F)[C@@H](C)[C@H]2c2ccc(F)c(F)c2OC)cn1` (single isomer, unassigned) [Compound 417, rel-(2R*,3S*,4S*,5R*)-3-(3,4-difluoro-2-methoxyphenyl)-N-(6-(2-methoxy-1-((2-methoxyethyl)amino)-ethyl)pyridin-3-yl)-4,5-dimethyl-5-(trifluoromethyl)-tetrahydrofuran-2-carboxamide], the IC50 under setting [1] fell in the range of 10 to 100 nM.
In the case of `C[C@@H]1[C@H](c2ccc(F)c(F)c2OC(F)F)[C@@H](C(=O)Nc2ccc(C(N)=O)cc2)O[C@]1(C)C(F)(F)F` (stereo in doubt) [Compound 73, rel-(2S,3R,4R,5S)-N-(4-carbamoylphenyl)-3-(2-(difluoromethoxy)-3,4-difluorophenyl)-4,5-dimethyl-5-(trifluoromethyl)tetrahydrofuran-2-carboxamide], under setting [1], the IC50 is at least 1000 nM.
The same measure, in the same setting: then `CCOc1c([C@H]2[C@H](C(=O)Nc3ccnc(S(C)(=O)=NC)c3)O[C@@](C)(C(F)(F)F)[C@H]2C)ccc(F)c1C` (single isomer, unassigned) [Compound 130], with below 10 nM; and `COc1c([C@H]2[C@H](C(=O)NC(C)c3ccn[nH]3)O[C@@](C)(C(F)(F)F)[C@H]2C)ccc(F)c1F` (stereo partly drawn) [Compound 275, (2R,3S,4S,5R)-N-(1-(1H-pyrazol-5-yl)ethyl)-3-(3,4-difluoro-2-methoxyphenyl)-4,5-dimethyl-5-(trifluoromethyl)tetrahydrofuran-2-carboxamide], with at least 1000 nM; and `COc1c(C2C(C(=O)Nc3ccncn3)OC(C)(C(F)(F)F)C2C)ccc(F)c1F` (single isomer, unassigned) [Compound 36, 3-(3,4-difluoro-2-methoxy-phenyl)-4,5-dimethyl-N-pyrimidin-4-yl-5-(trifluoromethyl)tetrahydrofuran-2-carboxamide], with below 10 nM.
For the compound `COc1c([C@H]2[C@H](C(=O)NC3CCN(C(C)=O)C3)O[C@@](C)(C(F)(F)F)[C@H]2C)ccc(F)c1F` (stereo partly drawn) [Compound 298, (2R,3S,4S,5R)-N-(1-acetylpyrrolidin-3-yl)-3-(3,4-difluoro-2-methoxyphenyl)-4,5-dimethyl-5-(trifluoromethyl)tetrahydrofuran-2-carboxamide], the IC50 under setting [1] is at least 1000 nM.
Still for that read-out and setting: then `COc1c([C@@H]2C[C@](C)(C(F)(F)F)O[C@H]2C(=O)Nc2ccnc([C@H](O)CO)c2)ccc(F)c1C` (single isomer, unassigned) [Compound 704], with 10 to 100 nM.
As for `COCC(C)(C)N(C)Cc1cc(NC(=O)[C@@H]2O[C@@](C)(C(F)(F)F)[C@@H](C)[C@H]2c2ccc(F)c(F)c2OC)ccn1` [Compound 15], the IC50 under setting [1] lay within 10 to 100 nM.
Consider `COc1c([C@H]2[C@H](C(=O)Nc3ccnc(N4CCC(N(C)C)C4=O)c3)O[C@@](C)(C(F)(F)F)[C@H]2C)ccc(F)c1F` (single isomer, unassigned) [Compound 507, rel-(2R*,3S*,4S*,5R*)-3-(3,4-difluoro-2-methoxyphenyl)-N-(2-(3-(dimethylamino)-2-oxopyrrolidin-1-yl)pyridin-4-yl)-4,5-dimethyl-5-(trifluoromethyl)tetrahydrofuran-2-carboxamide], for which the IC50 under setting [1] is 10 to 100 nM.
For `COc1c([C@H]2[C@H](C(=O)Nc3cc(C4(N(C)C)COC4)ncc3F)O[C@@](C)(C(F)(F)F)[C@H]2C)ccc(F)c1F` [Compound 363, (2R,3S,4S,5R)-3-(3,4-difluoro-2-methoxyphenyl)-N-(2-(3-(dimethylamino)oxetan-3-yl)-5-fluoropyridin-4-yl)-4,5-dimethyl-5-(trifluoromethyl)tetrahydrofuran-2-carboxamide], the IC50 under setting [1] was in the range of 10 to 100 nM.
Regarding `C[C@H]1[C@@H](c2ccc(F)c(F)c2OCC(C)(F)F)[C@H](C(=O)Nc2ccnc(CO)c2)O[C@@]1(C)C(F)(F)F` [Compound 643, (2R,3S,4S,5R)-3-(2-(2,2-difluoropropoxy)-3,4-difluorophenyl)-N-(2-(hydroxymethyl)pyridin-4-yl)-4,5-dimethyl-5-(trifluoromethyl)tetrahydrofuran-2-carboxamide], the IC50 under setting [1] is below 10 nM.
On the same count and under the same terms, in the case of `COc1c(C2C(C(=O)Nc3ccnc(C(=O)O)c3)OC(C)(C(F)(F)F)C2C)ccc(F)c1C(F)F` (single isomer, unassigned) [Compound 174] it was below 10 nM.
With `COc1c([C@@H]2C[C@](C)(C(F)(F)F)O[C@H]2C(=O)Nc2ccnc(C(O)CO)c2)ccc(F)c1F` (single isomer, unassigned) [Compound 685], the IC50 under setting [2] was in the range of 10 to 100 nM.
`COc1c([C@H]2[C@H](C(=O)Nc3cnc4c(c3)C(O)CC4)O[C@@](C)(C(F)(F)F)[C@H]2C)ccc(F)c1F` (single isomer, unassigned) [Compound 434, rel-(2R*,3S*,4S*,5R*)-3-(3,4-difluoro-2-methoxyphenyl)-N-(5-hydroxy-6,7-dihydro-5H-cyclopenta[b]pyridin-3-yl)-4,5-dimethyl-5-(trifluoromethyl)tetrahydrofuran-2-carboxamide]: the IC50 under setting [1] was 100 to 1000 nM.
On the same count and under the same terms, in the case of `COc1c([C@H]2[C@H](C(=O)Nc3ccnc(C4(N)CCOC4)c3)O[C@@](C)(C(F)(F)F)[C@H]2C)ccc(F)c1F` (single isomer, unassigned) [Compound 347, rel-(2R*,3S*,4S*,5R*)-N-(2-(3-aminotetrahydrofuran-3-yl)pyridin-4-yl)-3-(3,4-difluoro-2-methoxyphenyl)-4,5-dimethyl-5-(trifluoromethyl)-tetrahydrofuran-2-carboxamide] it was 10 to 100 nM; in that of `COc1c([C@H]2[C@H](C(=O)Nc3cnc4n3CCCC4)O[C@@](C)(C(F)(F)F)[C@H]2C)ccc(F)c1F` [Compound 317, (2R,3S,4S,5R)-3-(3,4-difluoro-2-methoxyphenyl)-4,5-dimethyl-N-(5,6,7,8-tetrahydroimidazo[1,2-a]pyridin-3-yl)-5-(trifluoromethyl)-tetrahydrofuran-2-carboxamide], 100 to 1000 nM; in that of `COCCOc1c([C@H]2[C@H](C(=O)Nc3ccc4nncn4c3)O[C@@](C)(C(F)(F)F)[C@H]2C)ccc(F)c1F` [Compound 577, (2R,3S,4S,5R)-3-[3,4-difluoro-2-(2-methoxyethoxy)phenyl]-4,5-dimethyl-N-([1,2,4]triazolo[4,3-a]pyridin-6-yl)-5-(trifluoromethyl)tetrahydrofuran-2-carboxamide], below 10 nM.
On the same count and under the same terms, then `COc1c([C@H]2[C@H](C(=O)Nc3ccnc(CO)c3)O[C@@](C)(C(F)(F)F)[C@H]2C)ccc(F)c1F` (single isomer, unassigned) [Compound 14], with below 10 nM; and `CCS(=O)(=O)c1cc(NC(=O)C2OC(C)(C(F)(F)F)C(C)C2c2ccc(F)c(F)c2OC)ccn1` (single isomer, unassigned) [Compound 51, 3-(3,4-difluoro-2-methoxy-phenyl)-N-(2-ethylsulfonyl-4-pyridyl)-4,5-dimethyl-5-(trifluoromethyl)tetrahydrofuran-2-carboxamide], with below 10 nM.
Still for that read-out and setting: in the case of `CNC(=O)c1ccc(NC(=O)[C@@H]2O[C@@](C)(C(F)(F)F)[C@@H](C)[C@H]2c2ccc(F)c(C(F)F)c2OC)cn1` (stereo in doubt) [Compound 170, rel-5-((2R,3S,4S,5R)-3-(3-(difluoromethyl)-4-fluoro-2-methoxyphenyl)-4,5-dimethyl-5-(trifluoromethyl)tetrahydrofuran-2-carboxamido)-N-methylpicolinamide] it was below 10 nM; in that of `COCc1cc(NC(=O)C2OC(C)(C(F)(F)F)C(C)C2c2ccc(F)c(F)c2OC2CC(O)C2)ccn1` [Compound 664, (2R,3S,4S,5R)-3-(3,4-difluoro-2-((1S,3R)-3-hydroxycyclobutoxy)phenyl)-N-(2-(methoxymethyl)pyridin-4-yl)-4,5-dimethyl-5-(trifluoromethyl)tetrahydrofuran-2-carboxamide], 10 to 100 nM; in that of `COc1c([C@H]2[C@H](C(=O)Nc3ccc4nc(CO)cn4c3)O[C@@](C)(C(F)(F)F)[C@H]2C)ccc(F)c1F` [Compound 264, (2R,3S,4S,5R)-3-(3,4-difluoro-2-methoxyphenyl)-N-(2-(hydroxymethyl)imidazo[1,2-a]pyridin-6-yl)-4,5-dimethyl-5-(trifluoromethyl)tetrahydrofuran-2-carboxamide], 10 to 100 nM.
With `COc1c([C@H]2[C@H](C(=O)Nc3cc(C[C@@H](O)CO)n(C)n3)O[C@@](C)(C(F)(F)F)[C@H]2C)ccc(F)c1F` [Compound 335, (2R,3S,4S,5R)-3-(3,4-difluoro-2-methoxy-phenyl)-N-[5-[(2R)-2,3-dihydroxypropyl]-1-methyl-pyrazol-3-yl]-4,5-dimethyl-5-(trifluoromethyl)tetrahydrofuran-2-carboxamide], the IC50 under setting [1] is at least 1000 nM.
For the compound `C[C@@H]1[C@H](c2ccc(F)c(F)c2OC(F)F)[C@@H](C(=O)Nc2ccnc(CCO)c2)O[C@]1(C)C(F)(F)F` (single isomer, unassigned) [Compound 457], the IC50 under setting [2] is at least 1000 nM.
With `COc1c([C@H]2[C@H](C(=O)Nc3ccc(-c4ccccn4)nc3)O[C@@](C)(C(F)(F)F)[C@H]2C)ccc(F)c1F` [Compound 396, (2R,3S,4S,5R)-N-([2,2′-bipyridin]-5-yl)-3-(3,4-difluoro-2-methoxyphenyl)-4,5-dimethyl-5-(trifluoromethyl)-tetrahydrofuran-2-carboxamide], the IC50 under setting [1] is at least 1000 nM.
`COc1c([C@H]2[C@H](C(=O)Nc3csnc3C)O[C@@](C)(C(F)(F)F)[C@H]2C)ccc(F)c1F` [Compound 327, (2R,3S,4S,5R)-3-(3,4-difluoro-2-methoxyphenyl)-4,5-dimethyl-N-(3-methylisothiazol-4-yl)-5-(trifluoromethyl)-tetrahydrofuran-2-carboxamide]: the IC50 under setting [1] is below 10 nM.
